Experimental data as given in patent publication US20090093538A1, “Method for treating cancer” (priority 2007, published 2009).

Key:
[1] = system: Hs294T (or MDA-MB-435) cells; assay: Affymetrix transcriptional profiling; type: cell-based, human; settings: 100 nM, 6 hours
Procedure: RNA was isolated from the cells 6 hours after treatment using the RNeasy kit according to the manufacturers instructions (Qiagen Cat. # 71404) and RNA quality was confirmed by spectrophotometric examination. cDNA was synthesized using the One-Cycle cDNA Synthesis Kit (Affymetrix Cat. # 900431) according to the manufacturers instructions. cDNA was labeled using the GeneChip IVT Labeling Kit (Affymetrix Cat. #900449) and analyzed in duplicate on the Affymetrix Human Genome U133Plus 2.0 gene chip array according to standard Affymetrix protocols. Data sheets from the Affymetrix Gene Chip Scanner 3000 were imported into Microsoft Excel and filtered by the following criteria: greater than or equal to 1.5 fold increase, greater than or equal to 0.4SE between replicates; and 50 (low stringency) or 500 (high stringency) for the lowest signal.
NAC is the rate-limiting amino acid for the production of the antioxidant glutathione. Addition of NAC to cells increases the levels of endogenous glutathione which in turn blocks oxidative stress and ROS generation. […] RNA was isolated from the cells 6 hours after treatment and Affymetrix analysis was performed as above.

HSB2 cells = assay: Apoptosis, Annexin V / propidium iodide FACS; type: cell-based
Procedure: To confirm that the ability of NAC to block Compound 1-induced cell death was not cell-line specific, we examined the role of oxidative stress in two additional cell lines by FAC analysis. RAMOS and HSB2 cells (ATCC) were seeded in 6-well plates at 1×10^6 cells/well/4 mL and incubated at 37° C. for 4 hours. […] After incubation the cells were stained with Annexin V and propidium iodide (Vybrant Apoptosis assay kit, Cat# V13241, Invitrogen, Molecular Probes) for measuring apoptotic cells by FACS analysis.
The cells were harvested and stained with Annexin V and propidium iodide for measuring apoptotic cells by FACS analysis.

[2] = Compound 1 0.2 μM plus NAC 5 mM, 20 hours
[3] = Compound 1 0.2 μM, 20 hours (FIG. 39D)

In the case of `CN(NC(=O)CC(=O)NN(C)C(=S)c1ccccc1)C(=S)c1ccccc1` [Compound 1], the “increase in transcription of Hsp70” value [1] is reported as “over 300 fold”, the “induction of heat shock and metallothionein genes” value ([1]; Hs294T melanoma cells) is reported as “robustly induced heat shock and metallothionein genes” and the “gene expression profile (heat shock proteins, metallothioneins, antioxidants)” value ([1]; MDA-MB-435 cells) is reported as “induces an oxidative stress signature profile”. For the same molecule, the early apoptotic cells (HSB2 cells; 200 nM Compound 1, 24 hours (DMSO 12%)) was 45%, the “cells in early stages of apoptosis” value (HSB2 cells; [2]) was 2.9% and the “cells in late stages of apoptosis” value (HSB2 cells; [2]) was 3.8%. For the same molecule, the early apoptotic cells (HSB2 cells; Compound 1 0.2 μM plus NAC 5 mM, 24 hours) was 6%, the “cells in early stages of apoptosis” value (HSB2 cells; [3]) was 26.6% and the “cells in late stage apoptosis” value (HSB2 cells; [3]) was 41.5%.
